Assay results: US12377112B2, “Methods of treating neurocognitive disorders, chronic pain and reducing inflammation” (priority 2019, dated 2025)
Marks after values point to notes of the source that are not given here.

What was measured:
[1] = test system: Wistar-Kyoto (WKY) rats; assay: Sleep-wake amounts (EEG/EMG) in Wistar-Kyoto rats; assay type: in vivo, rat; details: 5 mg/kg and 10 mg/kg s.c.
Text: Since WKY rats show decreased sensitivity to conventional monoamine-based antidepressant treatment, they are used as a model of TRD.
Male (WKY) rats (200-250 g) were implanted with electroencephalography (EEG) and electromyography (EMG) electrodes and telemetry transmitters under general anaesthesia (2-5% isoflurane in Oxygen). A telemetry transmitter (HD-502, Data Sciences International) was placed in the peritoneal cavity, and the wires of the transmitter were passed through the muscle wall and then sub-dermally to the scalp to act as EEG/EMG electrodes. Two bore holes were made in the skull (Fronto-parietal coordinates; Bregma +2 mm anterior, midline +1.0 mm lateral and Lambda 0 mm, +1.5 mm lateral). The positive EEG electrode was attached to the anterior bore hole and the negative EEG electrode to the posterior bore hole. Both electrodes were secured in place using a suitable adhesive agent (Cyanoacrylate gel, RS components). […]
Animals were maintained on a 12/12 hour light dark cycle. On study days, the animals were placed in recording boxes and EEG/EMG, locomotor activity, as well as body temperature were recorded for 0.5 h before and 24 h after each dosing. […]
The subsequent EEG/EMG recordings were automatically scored as wake, non-REM (NREM) sleep, or REM sleep in 10 second epochs using SleepSign (Kissei Comtec, Japan). […]

[2] = test system: male C57BL/6 mice; assay: Chronic constriction injury (CCI) model of neuropathic pain, von Frey paw withdrawal threshold; assay type: in vivo, mouse
Protocol: To determine whether psilocybin may alleviate chronic neuropathic pain, various doses of psilocybin were tested in a mouse model of chronic constriction injury (CCI).
Male C57BL/6 mice (age 6-7 weeks, source: Charles River UK) were housed in standard caging in groups of 2-4, with free access to food (5CR4, Purina) and water (except during placement in the test box) on a 12/12 light/dark cycle.
All animals underwent behavioral testing of mechanical allodynia on three consecutive days (Day −2, Day−1 and Day 0) prior to surgery in order to determine the baseline withdrawal thresholds. Briefly, Static mechanical (tactile) allodynia was assessed by measurement of withdrawal threshold using calibrated (force; g) von-Frey monofilaments (Touch-Test Sensory Evaluator; Scientific Marketing Associates) applied to the plantar surface of the hind-paw. The animals were placed in individual Perspex boxes on a raised metal mesh for 30-40 minutes before the test. A series of graduated von Frey hairs (0.07, 0.16, 0.4, 0.6 and 1 g) was applied in sequence with a protocol of 1 second on 1 second off, repeated 10 times. Each hair was applied perpendicularly to the center of the ventral surface of the paw until it slightly bends. The force applied to the hind-paw of the animal to induce 5 responses out of 10 trials was recorded as paw withdrawal threshold (PWT). Three baseline paw withdrawal thresholds were taken on ipsilateral paws. The mean of the last two readings used as the baseline withdrawal threshold.
Subsequently, surgery was performed under anesthesia (Isoflurane mixed with oxygen, 3:1, 2 L/min) to tie three loose ligatures of prolene (7-0, Ethicon) around the sciatic nerve, with 1 mm spacing between each. The nerve was then returned below the muscle layer and the wound closed using absorbable sutures (Vicryl).
Following recovery from surgery, Von Frey assessment of mechanical allodynia was taken on days 19 and 22. Animals were then ranked and randomized (based on a Latin square design) to treatment groups according to the percentage change (compared to pre-surgery baseline) of the mean mechanical withdrawal threshold observed on days 19 and 22. Only those animals showing a PWT percentage change of >50% from pre-surgery baseline were included in the study.
On day 23, the animals were dosed with psilocybin (1, 3 or 10 mg/kg by intraperitoneal injection) or vehicle (10 mL/kg by intraperitoneal injection). Nerve pain medication Pregabalin (15 mg/kg administered orally) was also used as a positive control. Allodynia was then assessed at 0.5, 4 and 24 hours post-treatment timepoint (PTT).

[3] = test system: rat primary hippocampal culture, Aβ 1-40 intoxication; assay: Fibrillated amyloid-β damage on cultures of hippocampal neurons (MTT viability); assay type: cell-based
Text: Amyloid-β toxicity is a hallmark of Alzheimer's disease, and is also frequently seen in multiple sclerosis lesions. In this study, the neuroprotective effect of psilocin on amyloid-β-induced neuronal death in rat primary hippocampal culture was investigated.
Female Wistar rats of 19 days gestation were killed by cervical dislocation and foetuses were removed from the uterus. Their brains were placed in ice-cold medium of Leibovitz (L15, Gibco, Fisher bioblock, France). Hippocampi were carefully removed, and the hippocampal neurons were dissociated by trypsinization for 30 min at 37° C. (trypsin-EDTA, Gibco) in presence of 0.1 mg/ml DNAse I (Roche, France). […] Viable cells were counted in a Neubauer cytometer using the trypan blue exclusion test (Sigma). […]
Psilocin was added to cells 10 minutes or 48 hours before amyloid-β intoxication. Neuronal viability was assessed 48 hours after amyloid-β intoxication. […]
Two days after Aβ exposure (day 11), cell viability was assessed by a measurement of cell metabolic activity using the CellTiter96® non-radioactive kit (MTT, Promega, Charbonnières, France). […] Solubilization solution was added and visible wavelength absorbance data was collected 4 hours later using a 96-well plate reader at 570 nm and 630 nm for non-specific background (Multiskan EX, Thermo Fisher).

[4] = test system: rat embryo mesencephalic cells, 6-OHDA; assay: 6-OHDA damage on mesencephalic neuronal cultures (TH positive neurons); assay type: cell-based; details: 1 μM, 3 μM and 10 μM, one hour prior to 15 μM 6-OHDA
Protocol: The neuroprotective effect of psilocin against 6-OHDA-mediated injury on mesencephalic neuronal cultures was investigated.
A primary culture of rat embryo mesencephalic cells was plated on a 96-well plate. The cells were maintained at 37° C. in 5% CO2. Half of the medium was changed on day 2.
On day 6, the culture medium was removed and replaced by media containing psilocin (0.03 μM, 0.1 μM, 0.3 μM, 1 μM, 3 μM, or 10 μM), a negative control (saline vehicle, labelled control in FIG. 10), or a positive control (brain-derived neurotrophic factor (BDNF) and glial cell-derived neurotrophic factor (GDNF))). After one hour, 15 μM 6-OHDA was added for 48 hours.
On day 8, immunodetection was used to determine the number of tyrosine hydroxylase positive neurons.
Neuronal viability was assessed 48 hours after 6-OHDA intoxication and measured by the number of TH (tyrosine hydroxylase) positive neurons. The compound 6-OHDA kills specifically dopaminergic neurons, mimicking the cellular pathophysiology of Parkinson's disease. […] The result for each well was expressed as a percentage by setting the density of tyrosine hydroxylase positive cells under control conditions to 100%. The result for each condition was reported as mean (±S.E.M.) from 4 independent cultures.

[5] = test system: human iPSC-derived neurons; assay: Neurite outgrowth in human iPSC-derived neurons; assay type: cell-based
Protocol: The neurotrophic effect of psilocin was tested on human iPSC-derived neuronal cultures. Two parameters were evaluated: the average number of neurites per neuron, and the average total neurite length per neuron. Briefly, neurons establish physical connections between them in order to create neuronal networks.
Cryopreserved iCell neurons were thawed and plated according to Cellular Dynamics International instructions. The pharmacological treatments were carried out 2 hours after the cell plating. The cells were maintained in a humidified incubator at 37° C. in 5% CO2-95% air atmosphere.
Stock solutions of psilocin were prepared in 100% DMSO at 1000 times the final concentration in the culture media (1000× concentration).
For each culture, each condition was performed in sextuplet.
Each plate contained two types of other experimental conditions: the control condition treated with vehicle and the culture treated with Brain-derived neutrophic factor (BDNF).
Plate 1 and 2: Cells were treated with psilocin at 3 different concentrations: 0.03 μM, 0.1 μM, 0.3 μM. The stock solution was prepared fresh in 100% DMSO at 10 mM. BDNF was used in parallel.
Ten days after plating, cultures were fixed with paraformaldehyde in PBS (phosphate buffered saline) (4%, Sigma). Then, cells were successively permeabilized, saturated with PBS (containing 3% of BSA) and incubated for 1 h with anti-beta III tubulin antibody (Sigma) at 1/10 000 in PBS containing 0.5% of BSA (bovine serum albumin). Cells were first washed and were then incubated 1 h with goat anti-mouse antibody coupled with AF488 (Invitrogen A11001) diluted at 1/1000 in PBS containing 0.5% of BSA. Finally, nuclei are stained with DAPI 1 mg/ml at 1/1000 in PBS containing 0.5% of BSA. After rinsing them with PBS, the plate was filmed and neurite networks were examined and analyzed using High-Content Screening (CellInsight, Thermo Scientific).
The evaluation of neurite outgrowth was performed using the average number of neurites per neuron and the average of total neurite length per neuron, using Sholl method (Bird & Cuntz, 2019). (See FIG. 59A, FIG. 59B, FIG. 60A, FIG. 60B).

## CNC1(c2ccccc2Cl)CCCCC1=O (centres unmarked) [ketamine]
[1]
  Amount of REM sleep: decreased the amount of REM sleep in a dose-dependent manner

## CC(C)C[C@H](CN)CC(=O)O [pregabalin, reference compound]
[2]; 15 mg/kg PO group, D19-22 Neuropathic baseline (before dosing)
  Force-induced paw withdrawal, mean: 0.13 g
[2]; 15 mg/kg PO group, D-2 D-1 Baseline (before surgery and dosing)
  Force-induced paw withdrawal, mean: 0.67 g
[2]; 15 mg/kg PO, D23 0.5 hours PTT
  Force-induced paw withdrawal, mean: 0.19 g
[2]; 15 mg/kg PO, D23 4 hours PTT
  Force-induced paw withdrawal, mean: 0.46* g
[2]; 15 mg/kg PO, D24 24 hours PTT
  Force-induced paw withdrawal, mean: 0.16 g
[2]; 15 mg/kg orally, 4 hours
  Paw withdrawal threshold vs neuropathic baseline: significant increase

## CN(C)CCc1c[nH]c2cccc(O)c12 [psilocin]
[3]; 10 μM, applied 10 minutes prior to amyloid-β
  Neuronal viability after amyloid-β: increased neuronal viability
[3]; 0.3, 1, 3 and 10 μM, applied 48 hours prior to amyloid-β
  Neuronal viability after amyloid-β: increased neuronal viability
[4]
  Neuronal viability (TH positive neurons) after 6-OHDA: increased neuronal viability
[5]; 0.03 μM, treated at Day 0
  Average lengths of neurites: significant increases
[5]; 0.03 μM, treated at Day 3
  Average length of neurites: increase
  Number of neurites per neurons: increase
[5]; 0.1 μM
  Length of neurites: increased
